According to patent publication US10221144B2, “Antibacterial compounds having broad spectrum of activity” (priority 2014, dated 2019):
Counter-ions that a name gives are not always drawn. Like-named read-outs stand apart in the source and are kept apart here.

Experiments:
Format in all cases: biochemical
E. coli Topoisomerase IV = target: T1, E. coli Topoisomerase IV (Escherichia coli, UniProt P0AFI2+P20083); assay: Topoisomerase IV decatenation assay (E. coli)
T1 construct: purchased Inspiralis, UK
Experimental: (§1) The above compounds were tested for the inhibition of the enzyme DNA gyrase in a gyrase supercoiling assay and for the inhibition of the enzyme topoisomerase IV in a decatenation assay, in both Gram positive and Gram negative bacteria, according to the following methods.
(§2) Both the assays were carried out according to a set-up method modified from the article to Blanche F, et al. “Differential Behaviors of Staphylococcus aureus and Escherichia coli Type II DNA Topoisomerases”, Antimicrob. Agents Chemother., 1996, Vol. 40, No. 12 p. 2714-2720.
(§3) The compounds were screened at single concentration (200, 100 or 50 μM), in duplicate.
S. aureus and E. coli Topoisomerase IV decatenation kits (Inspiralis, UK) were used. A master mix with a total volume sufficient for the number of reactions to perform was prepared with the following reagents: 5× assay buffer (50 mM HEPES-KOH (pH 7.6), 100 mM potassium glutamate, 10 mM magnesium acetate, 10 mM DTT, 1 mM ATP, 50 μg/ml albumin), kDNA substrate (200 ng/reaction), RNase-DNase free water. Aliquots of this mix were dispensed in each tube, then 10× compound stock solutions or vehicle control (DMSO), were added in each reaction tube.
Reaction was started with Topoisomerase IV enzyme (0.5 U/reaction) addition.
(§4) A sample added with an equal volume of dilution buffer was used as negative control (without enzyme).
The reaction tubes were gentle vortexed and incubated 30 minutes at 37° C. Each reaction was stopped by adding 30 μl of Stop Buffer and 30 μl of chloroform/isoamyl alcohol (24/1), briefly vortexed for 5-10 seconds and centrifuged at 20000×g for 2 minutes. Samples taken from the upper phase were loaded into 1% agarose gel and subjected to electrophoresis for 1 hour at 80V constant voltage in TAE (40 mM Tris-acetate, 2 mM EDTA).
Data acquisition and analysis. Due to the high molecular mass, kDNA could not enter an agarose gel under normal electrophoresis conditions, but remained in the wells. In the presence of Topo IV topoisomerase mini-circles (2.5 Kb) were released from kDNA by decatenation and were quickly and easily resolved in the gel at relatively high voltages.
Bands were visualized by ethidium bromide staining (dil 1:20000) for 30 minutes followed by destaining in distilled water for 10 minutes.
For single concentration screening assay, in order to evaluate the compounds activity on the enzymes, the bands of decatenated DNAs in the gel were photographed by a digital imaging system ImageQuant LAS 4000 (GE Healthcare) according to manufacturer's instructions.
(§5) The fluorescent intensity of each band was analyzed by ImageQuant TL software and it was expressed as volume (volume of the uncalibrated quantity of material in the image feature after subtraction of the background intensity by using rolling ball method).
(§6) Each band intensity was compared, as percentage, to vehicle sample band intensity, which served as positive control, on the same gel.
(§7) Inhibitory activity was expressed as percent of inhibition versus the positive control.
(§8) The supercoiled or decatenated DNA bands obtained as described in Example 1 were analysed as follows.
(§9) Bands were analyzed by gel documentation equipment (Syngene, Cambridge, UK) and quantitated using Syngene Gene Tools software. Raw gel data (fluorescent band volumes) collected from Syngene, GeneTools gel analysis software were converted to a percentage of the 100% control (the fully supercoiled or decatenated DNA band). […] The IC50 data were calculated by using the global curve fit non-linear regression tool by selecting the Single, 2 Parameter fit function from the Exponential Decay equation category.

S. aureus DNA gyrase = target: T2, S. aureus DNA gyrase (Staphylococcus aureus, UniProt P0A0K8+P20831); assay: DNA gyrase supercoiling assay (S. aureus)
T2 construct: purchased Inspiralis, UK
Experimental: as §1, §2, §3
(§10) Reagents from S. aureus and E. coli Gyrase Supercoiling Assay kits (Inspiralis, UK) were used. A master mix with a total volume sufficient for the number of reactions to perform was prepared with the following reagents: 5× assay buffer, relaxed pBR322 substrate (0.5 μg/reaction), RNase-DNase free water. Aliquotes of this mix were dispensed in each tube, then 10× compound stock solutions or vehicle control (DMSO), were added to each reaction tube.
(§11) Reaction was started with E. Coli (2 U/reaction) or S. aureus (1 U/reaction) gyrase enzyme addition.
as §4
(§12) The reaction tubes were gentle vortexed and incubated 30 minutes at 37° C. Each reaction was stopped by adding 30 μl of Stop Buffer and 30 μl chloroform/isoamyl alcohol (24/1), briefly vortexed for 5-10 seconds and centrifuged at 20000×g for 2 minutes. Samples were loaded onto 1% agarose gel and subjected to electrophoresis for 1 hour at 80V constant voltage in TAE (40 mM Tris-acetate, 2 mM EDTA).
(§13) Data acquisition and analysis. Treatment of relaxed pBR322 with DNA gyrase converted the relaxed topoisomers (DNAs of different linking number) to the supercoiled form of the plasmid, which migrates faster on an agarose gel. An upper band might also be visible, which consists of open-circular (nicked) DNA which is present in the relaxed substrate but co-migrates with some of the relaxed topoisomers.
(§14) Bands were visualized by ethidium bromide staining (dilution 1:20000) for 30 minutes followed by destaining in distilled water for 10 minutes.
(§15) In order to evaluate the compounds activity on the enzyme, the bands of supercoiled DNAs in the gel were photographed by a digital imaging system ImageQuant LAS 4000 (GE Healthcare) according to manufacturer's instructions.
as §5, §6, §7, §8, §9

E. coli DNA gyrase = target: T3, E. coli DNA gyrase (Escherichia coli, UniProt P0AES4+P0AES6); assay: DNA gyrase supercoiling assay (E. coli)
T3 construct: purchased Inspiralis, UK
Experimental: as §1, §2, §3, §10, §11, §4, §12, §13, §14, §15, §5, §6, §7, §8, §9

[1] = E. coli, conc. 50 μM, n/a = not active, read-out: % inhibition Topo IV
[2] = E. coli, conc. 50 μM, n/a = not active
[3] = S. aureus, conc. 50 μM, n/a = not active

T3 sequence (P0AES4 whole entry, one chain of several): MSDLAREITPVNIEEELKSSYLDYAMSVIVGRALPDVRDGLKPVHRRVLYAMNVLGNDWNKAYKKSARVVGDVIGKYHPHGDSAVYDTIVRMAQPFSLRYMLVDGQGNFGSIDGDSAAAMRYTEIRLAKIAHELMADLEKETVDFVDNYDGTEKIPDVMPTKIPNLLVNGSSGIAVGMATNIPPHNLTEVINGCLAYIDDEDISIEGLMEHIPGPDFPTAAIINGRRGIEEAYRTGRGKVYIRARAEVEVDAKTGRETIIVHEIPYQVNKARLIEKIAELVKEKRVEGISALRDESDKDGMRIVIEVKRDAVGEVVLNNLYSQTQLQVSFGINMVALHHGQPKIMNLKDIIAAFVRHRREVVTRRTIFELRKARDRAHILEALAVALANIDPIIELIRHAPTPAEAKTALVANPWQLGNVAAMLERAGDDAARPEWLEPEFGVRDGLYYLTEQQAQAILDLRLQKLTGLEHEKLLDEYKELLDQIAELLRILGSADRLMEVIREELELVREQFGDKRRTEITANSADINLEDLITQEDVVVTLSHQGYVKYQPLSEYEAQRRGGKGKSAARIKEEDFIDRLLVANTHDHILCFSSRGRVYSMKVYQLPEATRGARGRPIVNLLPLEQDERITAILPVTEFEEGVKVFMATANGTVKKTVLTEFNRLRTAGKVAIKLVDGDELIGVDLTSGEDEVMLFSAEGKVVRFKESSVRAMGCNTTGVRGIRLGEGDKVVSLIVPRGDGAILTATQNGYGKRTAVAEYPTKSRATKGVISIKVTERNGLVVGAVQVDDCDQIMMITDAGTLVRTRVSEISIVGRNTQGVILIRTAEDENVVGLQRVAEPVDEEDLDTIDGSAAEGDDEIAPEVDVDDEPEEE
T1 sequence (P20083 whole entry): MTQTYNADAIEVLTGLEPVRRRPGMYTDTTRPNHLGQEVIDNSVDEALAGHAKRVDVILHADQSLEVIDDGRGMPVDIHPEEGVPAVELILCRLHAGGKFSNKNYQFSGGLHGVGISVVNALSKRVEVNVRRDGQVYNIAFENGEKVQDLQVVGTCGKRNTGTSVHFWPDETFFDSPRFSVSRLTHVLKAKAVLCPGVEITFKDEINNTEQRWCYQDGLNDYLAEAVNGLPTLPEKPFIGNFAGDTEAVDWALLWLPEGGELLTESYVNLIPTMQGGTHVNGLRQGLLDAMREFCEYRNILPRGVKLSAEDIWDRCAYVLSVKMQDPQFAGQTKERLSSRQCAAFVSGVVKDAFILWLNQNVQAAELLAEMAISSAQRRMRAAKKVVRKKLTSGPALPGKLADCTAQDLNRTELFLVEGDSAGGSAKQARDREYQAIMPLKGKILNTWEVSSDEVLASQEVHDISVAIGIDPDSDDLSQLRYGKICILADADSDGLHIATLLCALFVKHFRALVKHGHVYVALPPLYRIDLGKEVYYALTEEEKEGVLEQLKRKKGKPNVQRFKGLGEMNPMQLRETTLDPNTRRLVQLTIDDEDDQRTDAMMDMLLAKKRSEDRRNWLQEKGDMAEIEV
T1 sequence (P0AFI2 whole entry): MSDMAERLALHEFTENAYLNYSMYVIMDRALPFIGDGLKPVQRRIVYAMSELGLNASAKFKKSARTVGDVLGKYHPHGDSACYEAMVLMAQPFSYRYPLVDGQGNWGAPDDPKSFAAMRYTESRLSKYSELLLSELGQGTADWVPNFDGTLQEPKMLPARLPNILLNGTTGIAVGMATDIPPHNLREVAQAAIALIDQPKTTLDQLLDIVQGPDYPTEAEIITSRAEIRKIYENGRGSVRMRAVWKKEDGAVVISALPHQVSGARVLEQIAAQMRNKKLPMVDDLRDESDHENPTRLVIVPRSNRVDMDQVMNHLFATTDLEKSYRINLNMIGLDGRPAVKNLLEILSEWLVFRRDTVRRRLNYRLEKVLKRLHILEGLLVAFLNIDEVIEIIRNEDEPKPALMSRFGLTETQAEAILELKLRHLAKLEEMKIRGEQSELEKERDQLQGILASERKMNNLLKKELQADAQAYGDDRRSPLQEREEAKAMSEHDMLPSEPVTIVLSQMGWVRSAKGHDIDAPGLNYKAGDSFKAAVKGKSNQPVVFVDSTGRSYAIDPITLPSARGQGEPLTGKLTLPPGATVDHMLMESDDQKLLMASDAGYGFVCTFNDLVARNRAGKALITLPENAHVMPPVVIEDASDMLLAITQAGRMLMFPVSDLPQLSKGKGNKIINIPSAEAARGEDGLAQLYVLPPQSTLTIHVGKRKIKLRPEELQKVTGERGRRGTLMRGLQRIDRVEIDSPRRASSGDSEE
T2 sequence (P0A0K8 whole entry): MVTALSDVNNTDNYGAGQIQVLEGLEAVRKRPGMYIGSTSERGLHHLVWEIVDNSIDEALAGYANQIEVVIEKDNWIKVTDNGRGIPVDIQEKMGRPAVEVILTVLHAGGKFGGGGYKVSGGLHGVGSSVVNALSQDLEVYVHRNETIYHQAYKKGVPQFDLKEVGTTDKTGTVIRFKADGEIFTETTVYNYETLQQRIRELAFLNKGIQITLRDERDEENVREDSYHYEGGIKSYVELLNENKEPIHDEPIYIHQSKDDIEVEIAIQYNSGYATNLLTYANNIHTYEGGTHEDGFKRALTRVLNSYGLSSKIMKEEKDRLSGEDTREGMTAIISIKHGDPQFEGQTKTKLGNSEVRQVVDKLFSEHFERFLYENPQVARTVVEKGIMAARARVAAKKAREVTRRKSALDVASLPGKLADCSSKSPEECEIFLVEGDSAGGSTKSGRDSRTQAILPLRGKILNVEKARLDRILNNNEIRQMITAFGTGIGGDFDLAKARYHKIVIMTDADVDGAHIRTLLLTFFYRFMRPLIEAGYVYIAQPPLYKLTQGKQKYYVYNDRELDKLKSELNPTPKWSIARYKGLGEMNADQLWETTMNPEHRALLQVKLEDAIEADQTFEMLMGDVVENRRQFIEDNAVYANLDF
T2 sequence (P20831 whole entry): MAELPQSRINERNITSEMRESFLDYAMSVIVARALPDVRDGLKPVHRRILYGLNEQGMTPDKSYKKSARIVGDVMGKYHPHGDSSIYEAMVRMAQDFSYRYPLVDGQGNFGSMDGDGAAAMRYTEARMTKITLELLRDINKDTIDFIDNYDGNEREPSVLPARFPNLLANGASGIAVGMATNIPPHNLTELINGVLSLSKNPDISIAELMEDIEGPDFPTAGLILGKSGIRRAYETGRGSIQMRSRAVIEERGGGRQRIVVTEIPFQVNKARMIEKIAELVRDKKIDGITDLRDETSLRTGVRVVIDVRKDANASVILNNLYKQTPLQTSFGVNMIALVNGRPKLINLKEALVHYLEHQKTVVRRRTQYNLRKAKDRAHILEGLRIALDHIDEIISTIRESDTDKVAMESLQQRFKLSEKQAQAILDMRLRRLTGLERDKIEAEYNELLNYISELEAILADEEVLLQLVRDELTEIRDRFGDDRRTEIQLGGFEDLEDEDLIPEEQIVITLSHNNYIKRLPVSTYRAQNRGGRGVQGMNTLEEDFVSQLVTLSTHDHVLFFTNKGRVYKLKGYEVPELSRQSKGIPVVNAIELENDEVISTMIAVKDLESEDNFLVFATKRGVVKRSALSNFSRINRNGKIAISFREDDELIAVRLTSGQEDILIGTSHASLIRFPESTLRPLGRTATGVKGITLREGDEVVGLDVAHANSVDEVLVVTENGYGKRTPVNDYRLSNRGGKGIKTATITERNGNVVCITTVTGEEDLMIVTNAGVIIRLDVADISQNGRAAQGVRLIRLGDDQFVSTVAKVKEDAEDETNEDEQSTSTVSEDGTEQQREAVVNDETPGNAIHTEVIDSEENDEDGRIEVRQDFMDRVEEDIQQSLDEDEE

Row | Structure (SMILES) | IC50 (E. coli Topoisomerase IV) [µM] | inhibition at 100 µM (E. coli Topoisomerase IV; E. coli, conc. 100 μM, n/a = not active, read-out: % inhibition Topo IV) [%] | IC50 (S. aureus DNA gyrase) [µM] | inhibition at 100 µM (S. aureus DNA gyrase; S. aureus, conc. 100 μM, n/a = not active) [%] | IC50 (E. coli DNA gyrase) [µM] | inhibition at 100 µM (E. coli DNA gyrase; E. coli, conc. 100 μM, n/a = not active) [%] | inhibition at 50 µM (E. coli Topoisomerase IV; [1]) [%] | inhibition at 50 µM (E. coli DNA gyrase; [2]) [%] | inhibition at 50 µM (S. aureus DNA gyrase; [3]) [%] | % inhibition Topo IV (E. coli Topoisomerase IV; [2]) [%] | IC50 (E. coli Topoisomerase IV; E. coli, concentration-response curve, eight half-log concentrations 0.1 to 300 μM, read-out: IC50 Topo IV) [µM] | % inhibition DNA gyrase (S. aureus DNA gyrase; [3]) [%] | IC50 (S. aureus DNA gyrase; S. aureus, concentration-response curve, eight half-log concentrations 0.1 to 300 μM, read-out: IC50 DNA gyrase) [µM] | % inhibition DNA gyrase (E. coli DNA gyrase; [2]) [%] | IC50 (E. coli DNA gyrase; E. coli, concentration-response curve, eight half-log concentrations 0.1 to 300 μM, read-out: IC50 DNA gyrase) [µM]
1 | O=c1cc(NCCCN2CCN(c3nccc4cccnc34)CC2)c2ccccc2o1 [Compound 61, 4-({3-[4-(1,7-naphthyridin-8-yl)piperazin-1-yl]propyl}amino)-2H-chromen-2-one] | 20.2 | 92 | 8.7 | 88 | 3.3 | 92 |  |  |  |  |  |  |  |  | 
2 | NC(=O)C1CN(c2nccc3ccccc23)CCN1CCCNc1cc(=O)oc2ccccc12 (stereo not shown) [Compound 89, 4-(isoquinolin-1-yl)-1-{3-[(2-oxo-2H-chromen-4-yl)amino]propyl}piperazine-2-carboxamide hydrochloride] | 54 |  |  |  | 28 |  | 51 | 87 |  |  |  |  |  |  | 
3 | O=c1cc(NCCCN2CCN(c3nccc4ccccc34)CC2CO)c2ccccc2o1 (stereo not shown) [Compound 90, 4-({3-[2-(hydroxymethyl)-4-(isoquinolin-1-yl)piperazin-1-yl]-propyl}amino)-2H-chromen-2-one] | 15.5 |  | 9.3 |  | 8.3 |  | 81 | 93 | 89 |  |  |  |  |  | 
4 | [O-][n+]1ccc2ccc(F)cc2c1Cl [Compound 100, 1-chloro-7-fluoroisoquinolin-2-ium-2-olate] |  |  |  |  |  |  |  |  |  | 76 | 10.2 | 91 | 4.7 | 95 | 4.5
5 | O=c1cc(NCCC[N+]2([O-])CCN(c3nccc4ccc(F)cc34)CC2)c2ccccc2o1 [Compound 105, 4-({3-[4-(7-fluoroisoquinolin-1-yl)-1-oxidopiperazin-1-yl]propyl}amino)-2H-chromen-2-one] | 5.6 |  | 6.6 |  | 11.4 |  | 66 | 91 | 100 |  |  |  |  |  | 
6 | O=c1cc(NCCCN2CCC(c3nccc4ccccc34)CC2)c2ccccc2o1 [Compound 109, 4-({3-[4-(isoquinolin-1-yl)piperidin-1-yl]propyl}amino)-2H-chromen-2-one] | 5.6 |  | 20.7 |  | 5.1 |  | 72 | 100 | 100 |  |  |  |  |  | 
7 | C[N+]1(CCCNc2cc(=O)oc3ccccc23)CCN(c2nccc3ccccc23)CC1 [Compound 124, 4-(isoquinolin-1-yl)-1-methyl-1-{3-[(2-oxo-2H-chromen-4-yl)amino]propyl}piperazin-1-ium iodide] | 6 |  | 9 |  | 7 |  | 62 | 79 | 75 |  |  |  |  |  | 
8 | O=c1cc(NCCCN2CCN(c3nccc4ccc(F)cc34)CC2)c2c(o1)CCOC2 [Compound 125, 4-({3-[4-(7-fluoroisoquinolin-1-yl)piperazin-1-yl]propyl}amino)-7,8-dihydro-2H,5H-pyrano[4,3-b]pyran-2-one] | 59 |  | 19 |  | 6.3 |  | 68 | 86 | 89 |  |  |  |  |  | 
9 | O=c1cc(CC(O)CCN2CCN(c3nccc4ccc(F)cc34)CC2)c2ccccc2o1 (stereo not shown) [Compound 134, 4-{4-[4-(7-fluoroisoquinolin-1-yl)piperazin-1-yl]-2-hydroxybutyl}-2H-chromen-2-one] | 2.5 |  | 0.81 |  | 2.8 |  | 78 | 87 | 71 |  |  |  |  |  | 
